Laboratory results taken from US20220194952A1, “TETRAPYRROLIC CONJUGATES AND USES THEREOF FOR IMAGING” (Health Research, Inc., priority 2019, published 2022).

Legend:
[1] = test system: Colon26 tumors; test: In vivo whole body tumor fluorescence imaging (IVIS Spectrum); parameters: species or system BALB/c mice; conditions: non-radioactive analogs, i.v., post-injection
Method: Before evaluating in vivo PDT efficacy of PS 4 by exposing the tumors with light, the time point for optimal tumor uptake of PS was determined by whole body fluorescence imaging of tumored mice at various time points after injecting the PS.
The multi-spectral imaging system, IVIS Spectrum (Perkin-Elmer) along with Living Image (image acquisition and analysis software) was used. IVIS Spectrum has the capability to use either trans-illumination (from the bottom) or epi-illumination (from the top) to illuminate in vivo fluorescent sources. […] Regions of interest (ROI) were defined for areas of compound accumulation (tumor, liver, skin) and total and average signal within the region were recorded. Fluorescent intensity is expressed as the total radiant efficiency ([p/s]/[μW/cm^2]. Results are expressed as mean total radiant efficiency of three mice±SD.

[2] = test system: Colon26 cells; test: In vitro cytotoxicity (PDT) MTT assay; format: cell-based; conditions: variable drug concentrations, fixed light dose 1.0 J/cm^2 (FIG. 8A)
Method: Drug concentrations were increased 10× (0.25 to 32.0 μM) and a significant cytotoxicity was observed only at high concentrations at the highest light dose.
Assessment of cell growth following treatment with compound solutions alone and after light exposure was determined by a colorimetric assay that measured the reduction of yellow 3-(4,5-dimethythiazol-2-yl)-2,5-diphenyl tetrazolium bromide (MTT) by mitochondrial succinate dehydrogenase.
Briefly cells were plated into 96 well plates, allowed to adhere to the plate and are treated with a range of compound concentrations for various lengths of time. The light source consisted of dye lasers (375; Spectra-Physics, Mt. View, Calif.) pumped by an argon-ion laser (either 171 or 2080; Spectra-Physics). The dye lasers were tuned to the appropriate wavelength for the compound being tested. Total light doses were ranged from 0.125 to 1.0 J/cm^2 at a fluence rate of 3.2 mW/cm^2. At 48 hours post PDT treatment, MTT was added. The solubilized formazan product was measured spectro-photometrically using a BIOTEK EL-800 plate reader. Data were processed using GEN5 software. A medium blank value was subtracted from all samples and Optical Density (O.D.) values of treated cells were divided by mean O.D. value of untreated cells for each light dose).
Colon26 cells were plated and allowed to adhere for 4 hours, then the photosensitizer was added and incubated at 37° C. for 24 hours. Plates were irradiated with 789 nm light from a dye laser at 3.2 mW/cm^2 for a total dose of 0.25 to 1.0 Joule/cm^2.

[3] = Photobleaching in 17% bovine calf serum; format: physicochemical; conditions: 17% BCS, dye laser 75 mW/cm^2, 785 nm for 4
Method: Photobleaching was performed in quartz cuvettes on a 5 μM solution of 2 and a 25 μM solution of 4 in 17% BCS. The higher molarity was chosen to approximate the absorbance of 2 at 5 μM. A dye laser was used at dose rate 75 mW/cm^2, and excitation wavelength for 2 was 660 nm and for 4 was 785 nm.
In photodynamic therapy, photobleaching is the photochemical alteration of a chromophore or a fluorophore molecule such that could either permanently is unable to fluoresce or alter its fluorescence characteristics. This is caused by cleaving of the covalent bonds or non-specific reaction between the reactive oxygen species (e.g., singlet oxygen) and the molecule. These […] species formed by conversion of the molecular oxygen present in tumor to singlet oxygen by exposing the photosensitizer with light at an appropriate wavelength. The rate of photobleaching of the PS should depend (a) availability of oxygen, (b) photostability of PS and finally (c) the singlet oxygen (or other reactive oxygen species) producing ability of the PS.
To investigate the photobleaching characteristics of the photosensitizers, compounds 2 and 4 in equimolar concentrations (5 μM) were taken in quartz cuvettes in 17% bovine calf serum. Dye lasers with appropriate wavelength (2: 660 nm and 4: 785 nm) were used at a dose rate of 75 mW/cm^2. Both the compounds in formulated forms were irradiated with light and the absorption spectra at their long wavelength absorptions were measured with time. The decay in absorbance was plotted against the time of light exposure.

[4] = Singlet oxygen NIR emission in O2-saturated C6D6 versus C60 standard; format: physicochemical; conditions: O2-saturated C6D6, excitation 532 nm, emission at 1270 nm compared with C60
Source text: Excitation wavelength: 532 nm.
After monitoring absorption characteristics in several organic and aqueous solvents, it was hypothesized that the aggregation state of 4 could have contributed in decreasing the fluorescence and singlet oxygen quantum yields. The quantum yield of singlet oxygen from 4 was ΦO2=0.31 determined by the comparison of the emission intensity at 1270 nm as compared with C60 used as a standard (ΦO2=0.96) (FIG. 5).

[5] = Singlet oxygen phosphorescence at 1270 nm, methanol, pulsed laser 532 nm; format: physicochemical; conditions: near 5 μM, equi-absorbant at 532 nm, excited at 532 nm
Method: The photosensitizers, e. g., HPPH (control), 2 and 4 were individually dissolved in methanol (concentration: 5 μM) in polystyrene cuvettes and excited at 532 nm using a pulsed laser. Phosphorescence of singlet oxygen was detected at 1270 nm.
Before evaluating the imaging and photosensitizing potential of the chlorin 4 with extended ring system, its singlet oxygen producing ability was compared with the related chlorin 2. In brief, both compounds were individually dissolved in methanol in equi-absorbant (at 532 nm) concentrations near 5 μM and excited at 532 nm using a pulsed laser. The phosphorescence of singlet oxygen was detected at 1270 nm. From the results summarized in FIG. 4, it can be seen that compared to chlorin 2 with a five-member isocyclic ring, the related analog 4 with an extended ring system had remarkably lower singlet oxygen producing ability. Singlet oxygen quantum yields were φ=0.29 and φ=0.02 respectively, compared to HPPH φ=0.45.

methyl 3-[1′-(m-iodobenzyloxy)ethyl]-3-devinyl-13^3-keto-13^2-methoxycyclohexene [Compound 4]
time of optimal uptake in tumor (fluorescence imaging) [1]: 24 h | in vitro cytotoxicity (in words) [2]: did not produce any significant cell kill | photobleaching (in words) [3]: negligible photobleaching | quantum yield of singlet oxygen ΦO2 [4]: 0.31 | Singlet oxygen quantum yield φ [5]: 0.02
